Earlier results, collected in PubChem BioAssay AID1259409 (Chemical Carcinogenesis Research Information System (CCRIS), 2018).

System: rodent chemically induced tumor inhibition, incidence and multiplicity
Experiment: CCRIS tumor inhibitor studies
Conditions: Dose [Inhibitor]: 0, Route [Inhibitor]: ORAL, Species: RAT, Promoter: NONE USED

SMILES: C[C@]12CC[C@H](O)CC1=CC[C@@H]1[C@@H]2CC[C@]2(C)C(=O)CC[C@@H]12
- tumour outcome (control, treated, inhibition, significance) (Carcinogen: DIETHYLNITROSAMINE, 55-18-5, N-METHYL-N-NITROSOUREA, 684-93-5, N-BUTYL-N-(4-HYDROXYBUTYL)NITROSAMINE, 3817-11-6, 1,2-DIM, Carcinogen: DIETHYLNITROSAMINE, 55-18-5, N-METHYL-N-NITROSOUREA, 684-93-5, N-BUTYL-N-(4-HYDROXYBUTYL)NITROSAMINE, 3817-11-6, 1,2-DIM, 0.3% IND DIET FOR 23 WK BEGINNING 1 WK POST CARCINOGEN TREATMENT (STUDY DURATION: 28 WK), Strain/Sex: F344/MALE, Target Tissue: Type of Lesion: URINARY BLADDER: PAPILLOMA, Dose [Carcinogen]: 100 MG/KG BW DEN ONCE, 20 MG/KG BW MNU ONCE ON DAYS 6,9, AND 12, 0.05% BBN IN DRINKING WATER FOR FIRST TWO WK, 40 MG/KG, Dose [Carcinogen]: 100 MG/KG BW DEN ONCE, 20 MG/KG BW MNU ONCE ON DAYS 6,9, AND 12, 0.05% BBN IN DRINKING WATER FOR FIRST TWO WK, 40 MG/KG): 2/20 (10%), 1/20 (5%), 50%, not significant
- outcome (Carcinogen: DIETHYLNITROSAMINE, 55-18-5, N-METHYL-N-NITROSOUREA, 684-93-5, N-BUTYLY-N-(4-HYDROXYBUTYL)NITROSAMINE, 3817-11-6, 1,2-DI, Carcinogen: DIETHYLNITROSAMINE, 55-18-5, N-METHYL-N-NITROSOUREA, 684-93-5, N-BUTYLY-N-(4-HYDROXYBUTYL)NITROSAMINE, 3817-11-6, 1,2-DI, 0.3% IN DIET FOR 23 WK BEGINNING 1 WK POST CARCINOGEN TREATMENT (STUDY DURATION: 28 WK), Strain/Sex: F344/MALE, Target Tissue: Type of Lesion: LIVER: CARCINOMA, Dose [Carcinogen]: 100 MG/KG BW DEN ONCE, 20 MG/KG BW MNU ONCE ON DAYS 6,9, AND 12, 0.05% BBN IN DRINKING WATER FOR FIRST TWO WK, 40 MG/KG, Dose [Carcinogen]: 100 MG/KG BW DEN ONCE, 20 MG/KG BW MNU ONCE ON DAYS 6,9, AND 12, 0.05% BBN IN DRINKING WATER FOR FIRST TWO WK, 40 MG/KG): 0/20 (0%), 2/20 (10%), 100%, not significant
- tumour outcome (control, treated, inhibition, significance) (Carcinogen: DIETHYLNITROSAMINE, 55-18-5, N-METHYL-N-NITRSOUREA, 684-93-5, N-BUTYL-N-(4-HYDROXYBUTYL)NITROSAMINE, 3817-11-6, 1,2-DIME, Carcinogen: DIETHYLNITROSAMINE, 55-18-5, N-METHYL-N-NITRSOUREA, 684-93-5, N-BUTYL-N-(4-HYDROXYBUTYL)NITROSAMINE, 3817-11-6, 1,2-DIME, 0.3% IN DIET FOR 23 WK BEGINNING 1 WK POST CARCINOGEN TREATMENT (STUDY DURATION :28 WK), Strain/Sex: F344/MALE, Target Tissue: Type of Lesion: LARGE INTESTINE: ADENOCARCINOMA, Dose [Carcinogen]: 100 MG/KG BW DEN ONCE, 20 MG/KG BW MNU ONCE ON DAYS 6,9, AND 12, 0.05% BBN IN DRINKING WATER FOR FIRST TWO WK, 40 MG/KG, Dose [Carcinogen]: 100 MG/KG BW DEN ONCE, 20 MG/KG BW MNU ONCE ON DAYS 6,9, AND 12, 0.05% BBN IN DRINKING WATER FOR FIRST TWO WK, 40 MG/KG): 2/20 (10%), 0/20 (0%), 100%, not significant
- tumour outcome (control, treated, inhibition, significance) (Carcinogen: DIMETHYLNITROSAMINE, 62-75-9, 0.6% IN DIET BEGINNING 2 WK POST CARCINOGEN DOSE AND CONTINUING FOR 26 WK (STUDY DURATION: 120 WK), Strain/Sex: WISTAR/MALE, Target Tissue: Type of Lesion: KIDNEY: ADENOCARCINOMA, Dose [Carcinogen]: 30 MG/KG ONCE): 12/30 (40%), 24/31 (77%), -93%, p<0.01
- tumour outcome (control, treated, inhibition, significance) (Carcinogen: DIMETHYLNITROSAMINE, 62-75-9, 0.6% IN DIET BEGINNING 2 WK POST CARCINOGEN DOSE AND CONTINUING FOR 26 WK (STUDY DURATION: 120 WK), Strain/Sex: WISTAR/MALE, Target Tissue: Type of Lesion: KIDNEY: ADENOMA, Dose [Carcinogen]: 30 MG/KG ONCE): 12/30 (40%), 17/31 (55%), -38%, not calculated
- tumour outcome (control, treated, inhibition, significance) (Carcinogen: DIMETHYLNITROSAMINE, 62-75-9, 0.6% IN DIET BEGINNING 2 WK POST CARCINOGEN DOSE AND CONTINUING FOR 26 WK (STUDY DURATION: 120 WK), Strain/Sex: WISTAR/MALE, Target Tissue: Type of Lesion: KIDNEY: EPITHELIAL TUMOR, Dose [Carcinogen]: 30 MG/KG ONCE): 19/30 (63%), 26/31 (84%), -33%, not calculated
- tumour outcome (control, treated, inhibition, significance) (Carcinogen: DIMETHYLNITROSAMINE, 62-75-9, 0.6% IN DIET BEGINNING 2 WK POST CARCINOGEN DOSE AND CONTINUING FOR 26 WK (STUDY DURATION: 120 WK), Strain/Sex: WISTAR/MALE, Target Tissue: Type of Lesion: KIDNEY: MESENCHYMAL TUMOR, Dose [Carcinogen]: 30 MG/KG ONCE): 14/30 (47%), 14/31 (45%), 4%, not significant
- tumour outcome (control, treated, inhibition, significance) (Carcinogen: DIMETHYLNITROSAMINE, 62-75-9, 0.6% IN DIET BEGINNING 2 WK POST CARCINOGEN DOSE AND CONTINUING FOR 26 WK (STUDY DURATION: 120 WK), Strain/Sex: WISTAR/MALE, Target Tissue: Type of Lesion: KIDNEY: TUMOR, Dose [Carcinogen]: 30 MG/KG ONCE): 26/30 (87%), 30/31 (97%), -11%, not significant
